Calls of active or inactive are those of the source.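 How the source made its calls: active means caspase luminescence falls with dose and the half-maximal concentration AC50 from the fitted curve is at or below a set limit; inconclusive means flat fit at 30 to 70% signal loss, or invalid fit; inactive means AC50 above the limit, or signal rises instead.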

This assay relates to INS-1E cytokine-induced caspase-3/7, Caspase-Glo luminescence, 48 h. Briefly: suppression of cytokine-driven beta-cell apoptosis – INS-1E rat cells, luminescence, orthogonal assay for beta-cell apoptosis protection project, dose response (AID 463206).
One may read the AC50 as the concentration at which the activity in the assay is half-maximal. As for `Brc1ccccc1CN1CCN(Cc2c[nH]c3ccccc23)CC1`, the AC50 is > 26 µM (inactive). Regarding `CCCCNc1cc(C)nc(NCc2ccccc2)n1`, the AC50 was > 26 µM (inactive).

In the case of `Cc1cc2nc(NCCCO)n(CC(=O)c3cc(C(C)(C)C)c(O)c(C(C)(C)C)c3)c2cc1C`, the AC50 is > 26 µM (inactive). The result for `Cc1sc2ncnc(N3CCN(S(=O)(=O)c4ccc(C(C)(C)C)cc4)CC3)c2c1C` reads > 26 µM (inactive); that for `COc1cc(/C=C/C(=O)c2ccc([N+](=O)[O-])o2)ccc1O`, > 26 µM (inactive). To `CC(=O)NC(c1cccc([N+](=O)[O-])c1)c1ccc2cccnc2c1O` (centres undefined) belongs > 26 µM (inactive). For the compound `Cc1cccc(NC(=O)/C=C/c2ccc([N+](=O)[O-])s2)c1`, the AC50 is 2.71 µM. To `COc1ccc([N+](=O)[O-])c(S(=O)(=O)c2ccc(Cl)cc2)n1` belongs > 26 µM (inactive).

As for `COc1ccc(-n2c(-c3ccc(Br)cc3)c[n+]3c2CCCCC3)cc1`, the AC50 is > 26 µM (inactive). To `CN(C)C1=NC[C@H](Cc2ccccc2)N1CCCC1CCCCC1` belongs > 26 µM (inactive); to `Oc1ccc(N=Nc2nccs2)c(O)c1`, > 26 µM (inactive).

Turning to `CN1c2ccccc2N(C)C1(C)c1ccccc1`, the AC50 is > 26 µM (inactive). To `Oc1ccc(-[n+]2c(-c3ccccc3)cc(-c3ccccc3)cc2-c2ccccc2)cc1` belongs > 26 µM (inactive); to `COc1cccc(F)c1C(C[N+](=O)[O-])c1c(N)n(C)c(=O)n(C)c1=O` (centres undefined), > 26 µM (inactive). The result for `c1ccc(N2CCN(c3nc(-c4ccccn4)nc4ccccc34)CC2)cc1` reads > 26 µM (inactive); that for `COc1ccc2nc(N=Nc3ccc(O)c4ccccc34)sc2c1`, > 26 µM (inactive); that for `COc1ccc(Nc2nc(N3CCCCC3)c3ccccc3n2)cc1`, 21.1 µM. To `CC(=O)Nc1ccc(S(=O)(=O)NC2=C(N3CCN(C)CC3)C(=O)c3ccccc3C2=O)cc1` belongs > 26 µM (inactive); to `CCc1ccc(-c2nn(-c3ccccc3)cc2CSC(=N)N)cc1`, > 26 µM (inactive). `COc1ccc2[nH]c(C(=O)N/N=C/c3ccc(O)cc3O)cc2c1`: the AC50 is > 26 µM (inactive). In the case of `CCC1=NN(C(=O)c2cccc(Br)c2)C(O)(c2ccc(Br)cc2)C1` (centres undefined), the AC50 is > 26 µM (inactive). In the case of `Cc1cc(/C=N/n2c(COc3ccccc3C)nc3ccccc3c2=O)c(O)c([N+](=O)[O-])c1`, the AC50 is > 26 µM (inactive). `CCOC(=O)c1c(C)[nH]c(C(=O)N/N=C\c2ccccc2O)c1C`: the AC50 is > 26 µM (inactive). To `CCOc1cccc(/C=N/Nc2ccc(S(=O)(=O)N(CC)CC)cn2)c1O` belongs > 26 µM (inactive); to `COC(=O)c1nc(-c2ccc3c(n2)C(=O)C(N)=C(OC)C3=O)c(N)c(-c2ccc(OC)c(OC)c2O)c1C`, > 26 µM (inactive). As to `CC1CCC/C=C/C2CC(O)CC2C(O)/C=C/C(=O)O1` (centres undefined), the AC50 was > 26 µM (inactive). To `O=C(Oc1c(Cl)cc(Cl)c2cccnc12)c1cccs1` belongs > 12 µM (inactive). To `COc1ccc(C)cc1Nc1n[n+](-c2ccccc2)c(-c2ccc(OC)c(OC)c2OC)s1` belongs > 26 µM (inactive); to `Cc1c(C(=O)N/N=C/c2c(O)ccc3ccccc23)nnn1-c1nonc1N`, > 26 µM (inactive). The result for `O=C1C(Cl)=C(Nc2ccc3cn[nH]c3c2)C(=O)c2ccccc21` reads > 26 µM (inactive); that for `CN(c1ccccc1)c1ccc(/C=C/[N+](=O)[O-])cc1`, > 26 µM (inactive). Consider `c1ccc(C(c2ccccc2)N2CCN(c3nc4ccccc4n4cnnc34)CC2)cc1`, for which the AC50 was > 26 µM (inactive). To `Cc1[nH]n(-c2ccccc2)c(=O)c1/C=N/NC(=O)c1cccc(F)c1` belongs > 26 µM (inactive); to `Cn1nc(-c2ccccn2)nc2c(=O)n(C)c(=O)nc1-2`, > 26 µM (inactive). To `CC(C)c1ccc2c(c1)C(N1CCNCC1)Cc1ccc(F)cc1S2` (centres undefined) belongs > 26 µM (inactive); to `COc1ccc(/C=N/Nc2cc(C)nc3ccc(Br)cc23)cc1`, > 26 µM (inactive).

Turning to `COc1ccc(CNCCc2c(C)[nH]c3ccc(OC(F)(F)F)cc23)c(OC)c1`, the AC50 is > 26 µM (inactive). To `C/C(=N/NC(=O)c1ccc(C(C)(C)C)cc1)c1ccccn1` belongs > 26 µM (inactive).

As to `Cc1cc(N2CCN(c3nc4ccccc4s3)CC2)n2ncnc2n1`, the AC50 is > 26 µM (inactive). Consider `COC(=O)c1ccc(NC(=O)c2nc(S(=O)(=O)Cc3cccc(C)c3)ncc2Cl)cc1`, for which the AC50 is > 26 µM (inactive).

Regarding `c1ccc(-c2nc(N3CCCCCC3)c3ccccc3n2)nc1`, the AC50 is > 26 µM (inactive).

Take `CC(C)(C)c1cc(C(=O)N/N=C/c2ccccc2O)n(-c2ccccc2)n1`: the AC50 was > 26 µM (inactive). Consider `CCN(CC)S(=O)(=O)c1cc(OC)ccc1N=Nc1ccc(O)c2ncccc12`, for which the AC50 was > 26 µM (inactive). To `Cc1ccc2[nH]c(C(=O)N/N=C/c3ccccc3O)c(C)c2c1` belongs > 26 µM (inactive); to `O=C(NC1=C(Nc2ccc(Cl)cc2)C(=O)c2ccccc2C1=O)c1ccccc1`, > 26 µM (inactive); to `CN1/C(=C\C(=S)NC(=O)c2ccccc2Cl)C(C)(C)c2ccccc21`, > 26 µM (inactive).

As for `CCCCCCCCCCOC(=O)Cn1c(COc2cccc(OC)c2)[n+](C)c2ccccc21`, the AC50 is > 26 µM (inactive). In the case of `COc1ccc(OCc2n(CC(=O)OC3CC(C)CCC3C(C)C)c3ccccc3[n+]2C)cc1` (centres undefined), the AC50 is > 26 µM (inactive). The result for `COc1ccc(C(C)NCCC(c2ccc(OC(C)C)cc2)c2ccccc2OC)cc1` (centres undefined) reads > 26 µM (inactive); that for `Oc1ccc(Br)cc1/C=N/Nc1ccccn1`, > 26 µM (inactive); that for `C/C(=N\NC(=O)c1nnn(-c2nonc2N)c1CN1CCc2ccccc21)c1ccccc1O`, > 26 µM (inactive).

On to `NC(=S)N/N=C/c1ccc(C23CC4CC(CC(C4)C2)C3)cc1`, for which the AC50 was > 26 µM (inactive). To `C#CCN(C(=O)c1cc(COc2cccc(C(F)(F)F)c2)on1)C1CCCCC1` belongs > 26 µM (inactive); to `O=c1[nH]c(NCCCO)nc2c1C1(CCCC1)Cc1ccccc1-2`, > 26 µM (inactive). To `Cc1cccc(NC(=S)Nc2ccc3cn[nH]c3c2)c1` belongs > 26 µM (inactive); to `CC(C)(C)c1ccc(OCc2ccc(C(=O)N/N=C/c3ccc(O)c(O)c3)cc2)cc1`, > 26 µM (inactive). To `O=C(Nc1ccc([N+](=O)[O-])cc1)Nc1ccc(Cl)cc1F` belongs > 26 µM (inactive); to `CC(C)n1cnc2c(NCc3ccccc3)cc(N[C@H](C)CO)cc21`, > 26 µM (inactive).

Regarding `C[N+]1=C(/C=C/Nc2ccccc2Cl)C(C)(C)c2ccccc21`, the AC50 is > 26 µM (inactive). For `O=C(Cn1c(-c2ccccc2)c[n+]2ccsc12)c1ccc([N+](=O)[O-])cc1`, the AC50 was > 26 µM (inactive). As for `c1ccc2c(c1)OCC(CNc1ncnc3sccc13)O2` (centres undefined), the AC50 was > 26 µM (inactive).

As to `COc1cccc(/C=N/Nc2cc(C)nc(-c3ccccc3O)n2)c1O`, the AC50 is > 26 µM (inactive).

Take `N#CC1=C(N)N2C(=C(C#N)C1c1ccc(Br)cc1)Nc1ccccc12` (centres undefined): the AC50 is > 26 µM (inactive). The result for `Cc1[nH]c2ccccc2c1CN1CCC(Cc2ccccc2)CC1` reads > 26 µM (inactive); that for `CCCCCCCCCCCCCCCC[n+]1cccc(C(=O)N(CC)CC)c1`, > 26 µM (inactive); that for `Oc1c(CN2CCN(c3ccccc3)CC2)cc(Br)c2cccnc12`, > 26 µM (inactive).

As to `CCc1ccc(S(=O)(=O)/N=C2/C=C(Sc3ncn[nH]3)C(=O)c3ccccc32)cc1`, the AC50 was > 26 µM (inactive). In the case of `Cn1nccc1C(=O)NC1CCCc2c1cnn2-c1ccc(C(C)(C)C)cc1` (centres undefined), the AC50 was > 26 µM (inactive). The result for `CCN(CC)CCOc1ccc2c(c1)C(=NNC(=O)c1ccccn1)c1cc(OCCN(CC)CC)ccc1-2` reads > 26 µM (inactive); that for `CCCCC1CCC(C(=O)N(CC(C)C)c2c(N)n(Cc3ccccc3)c(=O)[nH]c2=O)CC1` (centres undefined), > 26 µM (inactive).

Take `CN(C)CCCN(C(=O)COc1ccc(Cl)cc1)c1nc2cc3c(cc2s1)OCO3`: the AC50 was > 26 µM (inactive). The result for `C=C1C(O)[C@@H]2O[C@]3(CC[C@H](/C=C/C(C)[C@@H]4CC(C)=CC5(O[C@H](C[C@@](C)(O)CO)CCC5O)O4)O3)CC[C@H]2O[C@@H]1C(O)CC(C)[C@H]1OC2(CCCCO2)CCC1C` (some centres undefined) reads 3.84 µM. Consider `CCN(CC)CCn1nc2c3c(cccc3c1=O)-c1ccccc1-2`, for which the half-maximal activity concentration (AC50) was 8.24 µM.

Take `CCCC(=O)NC(c1ccc(OC)cc1)c1ccc2cccnc2c1O` (centres undefined): the AC50 was > 26 µM (inactive).

With `O=C(NCc1ccccc1)C1=C[C@@H](c2csc3ccccc23)C[C@@H](OCc2ccc(CO)cc2)O1`, the AC50 is > 26 µM (inactive).

As for `CC(=O)/C=C/n1c(=S)oc2ccccc21`, the AC50 is > 26 µM (inactive). In the case of `Cc1ccccc1Oc1cc(NC(=O)CCCn2nc(C)c([N+](=O)[O-])c2C)cc([N+](=O)[O-])c1`, the AC50 was > 26 µM (inactive). Take `CCn1c(=O)c(C(=O)Nc2nc3ccccc3[nH]2)c(O)c2ccccc21`: the AC50 was > 26 µM (inactive).

For the compound `CS(=O)(=O)c1ncc(Cl)c(C(=O)Nc2ccc(OC(F)F)cc2)n1`, the AC50 was > 26 µM (inactive).

For `CCc1cc(CNC(=O)c2ccc3nc(Cc4ccc(OC)c(OC)c4)oc3c2)on1`, the AC50 was > 26 µM (inactive). The result for `Cc1ccc2nc(-c3ccccn3)c(NC3CCCC3)n2c1` reads > 12 µM (inactive); that for `COc1cccc(/C=N/Nc2ccnc(=O)[nH]2)c1O`, > 26 µM (inactive). Regarding `C=C(C(=O)c1ccccc1)C(C(=C)C(=O)c1ccccc1)c1ccc(OC)cc1`, the AC50 is > 26 µM (inactive). To `O=C(N/N=C/c1sc(N2CCOCC2)nc1-c1ccccc1)c1cccc(S(=O)(=O)N2CCCC2)c1` belongs > 26 µM (inactive).

For the origin of these results see PubChem BioAssay AID463206 (Broad Institute, 2010).
